Measured values taken from ChEMBL document CHEMBL5104203.

Each compound was assayed against Trehalose-binding lipoprotein LpqY (Mycobacterium tuberculosis) (UniProt P9WGU9) (assay: Binding affinity to RED-NHS labelled Mycobacterium tuberculosis LpqY expressed in Escherichia coli BL21 (DE3) assessed as dissociation constant incubated for 10 mins by Microscale thermophoresis analysis). Conditions: DDE = dose-dependent effect.
Sequence of Trehalose-binding lipoprotein LpqY (Mycobacterium tuberculosis) (P9WGU9 whole entry): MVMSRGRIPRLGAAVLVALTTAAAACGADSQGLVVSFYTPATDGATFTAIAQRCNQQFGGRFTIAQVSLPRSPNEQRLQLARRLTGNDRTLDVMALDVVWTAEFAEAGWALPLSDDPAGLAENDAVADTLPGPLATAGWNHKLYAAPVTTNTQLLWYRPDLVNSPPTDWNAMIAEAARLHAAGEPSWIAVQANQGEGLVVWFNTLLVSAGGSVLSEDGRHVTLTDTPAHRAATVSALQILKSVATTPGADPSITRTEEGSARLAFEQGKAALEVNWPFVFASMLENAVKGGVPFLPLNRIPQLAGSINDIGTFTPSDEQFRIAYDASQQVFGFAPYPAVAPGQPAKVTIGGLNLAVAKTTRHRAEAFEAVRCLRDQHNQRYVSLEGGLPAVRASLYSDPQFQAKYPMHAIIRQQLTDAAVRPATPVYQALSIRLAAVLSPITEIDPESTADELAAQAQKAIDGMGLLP
For COc1cc(NC(C)CCCN)c2ncccc2c1 (stereo not drawn), the Activity was “Dde”.
In the case of CNC(=O)c1nn(C)c2c1C(C)(C)Cc1cnc(Nc3ccc(N4CCN(C)CC4)cc3)nc1-2, the Activity is reported as “Dde”.
In the case of Nc1cccnc1Nc1ccc(Cl)cc1, the Activity is reported as “Dde”.
